{
  "source": "paper PMC9574855",
  "about": "(Journal of Medicinal Chemistry, 2022)",
  "key": {"[1]": {"test_system": "LOK", "settings": "300 nM, KiNativ, Jurkat cell lysate; cited from earlier work"}, "[2]": {"test_system": "ITPK1", "settings": "300 nM, KiNativ, Jurkat cell lysate; cited from earlier work"}, "[3]": {"test_system": "24 human lipid kinases and 83 human protein kinases", "settings": "300 nM, KiNativ; cited from earlier work"}, "[4]": {"molecular_target": "T1, PIKfyve (Homo sapiens, UniProt Q9Y2I7)", "T1 sequence (Q9Y2I7 whole entry)": "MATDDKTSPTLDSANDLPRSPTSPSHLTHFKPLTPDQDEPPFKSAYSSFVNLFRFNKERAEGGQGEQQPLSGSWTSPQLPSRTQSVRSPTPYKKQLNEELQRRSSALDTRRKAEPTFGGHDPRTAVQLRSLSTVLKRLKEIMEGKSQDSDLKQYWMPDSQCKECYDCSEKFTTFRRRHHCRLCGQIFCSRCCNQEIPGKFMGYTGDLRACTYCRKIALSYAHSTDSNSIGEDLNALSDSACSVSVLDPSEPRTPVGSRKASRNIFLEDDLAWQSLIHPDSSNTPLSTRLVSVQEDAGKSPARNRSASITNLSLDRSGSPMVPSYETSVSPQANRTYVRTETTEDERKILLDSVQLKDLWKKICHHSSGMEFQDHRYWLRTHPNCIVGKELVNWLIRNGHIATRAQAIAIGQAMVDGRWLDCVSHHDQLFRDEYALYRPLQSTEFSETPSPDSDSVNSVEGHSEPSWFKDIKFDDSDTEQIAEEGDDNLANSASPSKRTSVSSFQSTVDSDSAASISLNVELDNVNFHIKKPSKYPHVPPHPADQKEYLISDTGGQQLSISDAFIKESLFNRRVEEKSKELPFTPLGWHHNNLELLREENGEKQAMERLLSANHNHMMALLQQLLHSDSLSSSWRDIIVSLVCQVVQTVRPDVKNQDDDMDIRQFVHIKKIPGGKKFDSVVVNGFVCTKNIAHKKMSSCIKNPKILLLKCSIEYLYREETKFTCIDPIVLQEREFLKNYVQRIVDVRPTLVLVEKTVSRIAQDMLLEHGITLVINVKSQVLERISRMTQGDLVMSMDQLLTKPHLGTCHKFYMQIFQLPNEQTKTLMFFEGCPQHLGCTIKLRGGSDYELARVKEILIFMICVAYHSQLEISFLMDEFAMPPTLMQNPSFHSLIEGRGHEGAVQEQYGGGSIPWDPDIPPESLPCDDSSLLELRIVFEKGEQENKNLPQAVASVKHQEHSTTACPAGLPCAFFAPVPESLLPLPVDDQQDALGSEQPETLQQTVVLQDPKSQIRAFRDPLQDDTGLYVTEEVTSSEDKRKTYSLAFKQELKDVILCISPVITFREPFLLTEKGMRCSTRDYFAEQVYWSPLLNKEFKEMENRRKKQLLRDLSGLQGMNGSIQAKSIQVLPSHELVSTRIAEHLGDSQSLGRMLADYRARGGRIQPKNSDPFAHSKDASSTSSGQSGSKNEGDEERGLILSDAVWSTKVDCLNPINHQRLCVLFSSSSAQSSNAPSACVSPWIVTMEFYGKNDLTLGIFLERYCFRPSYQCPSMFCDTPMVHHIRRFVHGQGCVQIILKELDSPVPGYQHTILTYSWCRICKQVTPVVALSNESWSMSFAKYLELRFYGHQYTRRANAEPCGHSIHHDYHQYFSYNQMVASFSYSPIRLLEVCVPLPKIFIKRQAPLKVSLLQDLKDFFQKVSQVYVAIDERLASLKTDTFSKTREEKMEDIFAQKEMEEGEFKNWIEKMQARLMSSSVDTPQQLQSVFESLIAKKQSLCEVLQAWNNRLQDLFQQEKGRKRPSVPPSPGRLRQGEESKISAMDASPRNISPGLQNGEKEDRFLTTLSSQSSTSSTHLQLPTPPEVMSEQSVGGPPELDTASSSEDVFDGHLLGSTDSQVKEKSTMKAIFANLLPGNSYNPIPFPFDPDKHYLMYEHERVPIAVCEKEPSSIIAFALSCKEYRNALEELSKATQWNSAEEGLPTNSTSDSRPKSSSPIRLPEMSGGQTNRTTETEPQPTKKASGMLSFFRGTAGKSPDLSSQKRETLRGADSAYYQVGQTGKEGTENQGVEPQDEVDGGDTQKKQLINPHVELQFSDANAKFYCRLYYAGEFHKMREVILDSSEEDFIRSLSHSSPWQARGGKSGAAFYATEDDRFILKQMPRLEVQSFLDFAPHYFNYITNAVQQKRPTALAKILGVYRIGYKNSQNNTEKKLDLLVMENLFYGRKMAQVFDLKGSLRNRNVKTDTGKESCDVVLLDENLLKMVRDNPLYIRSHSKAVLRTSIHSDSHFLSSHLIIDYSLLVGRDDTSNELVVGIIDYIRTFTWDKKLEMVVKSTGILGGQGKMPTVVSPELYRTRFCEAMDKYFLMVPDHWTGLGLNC", "assay": "biochemical", "assay_type": "biochemical"}, "[5]": {"molecular_target": "T1, PIKfyve", "assay": "cell-based", "settings": "PIKfyve NanoBRET IC50, bound stated with SGC probe criteria"}, "[6]": {"test_system": "DBT cells", "assay": "LDH cell viability assay in DBT cells", "assay_type": "cell-based, mouse", "settings": "up to 10 μM"}, "[7]": {"test_system": "His6-SARS-CoV-2 spike protein uptake by HEK293T-ACE2 cells", "assay": "Spike uptake assay in HEK293T-ACE2 cells", "assay_type": "cell-based, human", "settings": "1 μM"}, "[8]": {"test_system": "His6-SARS-CoV-2 spike protein uptake by Calu-3 cells", "assay": "Spike uptake assay in Calu-3 cells", "assay_type": "cell-based", "settings": "1 μM"}, "[9]": {"test_system": "His6-SARS-CoV-2 spike protein uptake by Caco-2 cells", "assay": "Spike uptake assay in Caco-2 cells", "assay_type": "cell-based", "settings": "1 μM"}, "[10]": {"test_system": "lentivirus pseudotyped with the SARS-CoV-2 spike glycoprotein", "assay_type": "cell-based", "settings": "Calu-3 cells, 1 μM"}, "[11]": {"test_system": "bald GFP lentivirus", "assay_type": "cell-based", "settings": "Calu-3 cells, 1 μM"}, "[12]": {"test_system": "SH-SY5Y cells", "assay": "Lysosomal staining", "assay_type": "cell-based, human", "settings": "5 μM, 24 h"}, "[13]": {"molecular_target": "T2, MYLK4 (Homo sapiens, UniProt Q86YV6)", "T2 sequence (Q86YV6 1-388)": "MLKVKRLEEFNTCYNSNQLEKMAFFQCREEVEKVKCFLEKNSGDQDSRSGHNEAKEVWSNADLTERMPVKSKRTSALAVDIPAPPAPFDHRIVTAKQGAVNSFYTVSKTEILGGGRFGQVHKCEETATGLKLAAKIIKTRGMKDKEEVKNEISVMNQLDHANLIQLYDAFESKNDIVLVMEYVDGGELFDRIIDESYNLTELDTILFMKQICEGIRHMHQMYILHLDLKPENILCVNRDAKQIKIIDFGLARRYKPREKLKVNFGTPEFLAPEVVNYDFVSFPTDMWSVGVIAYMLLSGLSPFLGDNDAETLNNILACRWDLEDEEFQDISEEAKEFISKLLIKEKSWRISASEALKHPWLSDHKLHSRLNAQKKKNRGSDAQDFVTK", "assay": "NanoBRET assay", "assay_type": "cell-based"}, "[14]": {"test_system": "403 WT human kinases", "settings": "1 μM, published data, apilimod; cited from earlier work"}, "[15]": {"test_system": "403 WT human kinases", "assay": "DiscoverX scanMAX kinome-wide selectivity at 1 μM", "assay_type": "binding"}, "[16]": {"test_system": "MHV-nLuc virus", "assay": "microbe, parasite or virus in culture", "assay_type": "cell-based, mouse hepatitis virus (MHV)"}, "[17]": {"test_system": "SARS-CoV-2-nLuc", "assay": "microbe, parasite or virus in culture", "assay_type": "cell-based", "settings": "A549-ACE2 cells"}, "[18]": {"test_system": "A549-ACE2 cells", "settings": "LDH assay"}},
  "note": "Where two headings read alike, the source gives them in different places.",
  "data": [
    {"smiles": "Cc1cccc(/C=N/Nc2cc(N3CCOCC3)n3nc(-c4ccncc4)cc3n2)c1", "note": "[APY0201, 2-[7-(4-morpholinyl)-2-(4-pyridinyl)pyrazolo[1,5-a]pyrimidin-5-yl]hydrazone, 3-methyl-benzaldehyde]", "values": [
      {"measurement": "inhibition of LOK", "setting": "[1]", "value": "> 50", "unit": "%"},
      {"measurement": "inhibition of ITPK1", "setting": "[2]", "value": "> 50", "unit": "%"},
      {"measurement": "Gini coefficient", "setting": "[3]", "value": 0.753}
    ]},
    {"smiles": "CN(C)CC#Cc1ccc2[nH]c3c(c2c1)-c1nc(N)ncc1CCC3", "note": "[compound 17, 11-(3-(Dimethylamino)prop-1-yn-1-yl)-5,6,7,8-tetrahydropyrimido[4′,5′:3,4]cyclohepta[1,2-b]indol-2-amine]", "values": [
      {"measurement": "IC50", "setting": "[4]", "value": "< 100", "unit": "nM"},
      {"measurement": "IC50", "setting": "[5]", "value": "< 1000", "unit": "nM"},
      {"measurement": "effect on cell viability in DBT cells", "setting": "[6]", "value": "no significant effect on cell viability up to 10 μM"},
      {"measurement": "His6-SARS-CoV-2 spike protein uptake", "setting": "[7]", "value": "significantly reduced spike protein uptake"},
      {"measurement": "His6-SARS-CoV-2 spike protein uptake", "setting": "[8]", "value": "efficiently reduced spike protein uptake"},
      {"measurement": "His6-SARS-CoV-2 spike protein uptake", "setting": "[9]", "value": "efficiently reduced spike protein uptake"},
      {"measurement": "entry of lentivirus pseudotyped with SARS-CoV-2 spike glycoprotein", "setting": "[10]", "value": "inhibition of pseudoviral entry"},
      {"measurement": "entry of bald lentivirus", "setting": "[11]", "value": "entry of bald lentivirus was not impacted"},
      {"measurement": "vacuoles in LysoTracker-stained cells", "setting": "[12]", "value": "vacuoles are present"},
      {"measurement": "IC50", "setting": "[13]", "value": 265, "unit": "nM"}
    ]},
    {"smiles": "Cc1cccc(/C=N/Nc2cc(N3CCOCC3)nc(OCCc3ccccn3)n2)c1", "note": "[Apilimod, 4-(6-(2-(3-Methylbenzylidene)hydrazinyl)-2-(2-(pyridin-2-yl)ethoxy)pyrimidin-4-yl)morpholine, reference compound]", "values": [
      {"measurement": "His6-SARS-CoV-2 spike protein uptake", "setting": "[7]", "value": "significantly reduced spike protein uptake"},
      {"measurement": "His6-SARS-CoV-2 spike protein uptake", "setting": "[8]", "value": "efficiently reduced spike protein uptake"},
      {"measurement": "His6-SARS-CoV-2 spike protein uptake", "setting": "[9]", "value": "efficiently reduced spike protein uptake"},
      {"measurement": "entry of lentivirus pseudotyped with SARS-CoV-2 spike glycoprotein", "setting": "[10]", "value": "inhibition of pseudoviral entry"},
      {"measurement": "entry of bald lentivirus", "setting": "[11]", "value": "entry of bald lentivirus was not impacted"},
      {"measurement": "vacuoles in LysoTracker-stained cells", "setting": "[12]", "value": "vacuoles are present"},
      {"measurement": "# scanMAX kinases with PoC < 10", "setting": "[14]", "value": 1}
    ]},
    {"smiles": "Nc1ncc2c(n1)-c1c([nH]c3ccc(C4CC4)cc13)CCCC2", "note": "[compound 30, 12-Cyclopropyl-6,7,8,9-tetrahydro-5H-pyrimido[4′,5′:3,4]cycloocta[1,2-b]indol-2-amine]", "values": [
      {"measurement": "# scanMAX kinases with PoC < 10", "setting": "[15]", "value": 1},
      {"measurement": "inhibition of viral replication (MHV-nLuc), in words", "setting": "[16]; DBT cells", "value": "failed to inhibit viral replication"},
      {"measurement": "IC50", "setting": "[16]; Murine coronavirus, read-out: MHV replication pIC50 (converted)", "value": 10000, "unit": "nM"},
      {"measurement": "inhibition of SARS-CoV-2 replication, in words", "setting": "[17]", "value": "did not inhibit SARS-CoV-2 replication"},
      {"measurement": "effect on cell viability in DBT cells", "setting": "[6]", "value": "nontoxic up to 10 μM"},
      {"measurement": "His6-SARS-CoV-2 spike protein uptake", "setting": "[7]", "value": "no effect on spike protein uptake"},
      {"measurement": "entry of lentivirus pseudotyped with SARS-CoV-2 spike glycoprotein", "setting": "[10]", "value": "did not inhibit pseudoviral entry"},
      {"measurement": "entry of bald lentivirus", "setting": "[11]", "value": "entry of bald lentivirus was not impacted"},
      {"measurement": "toxicity to A549-ACE2 cells", "setting": "[18]", "value": "did not inhibit SARS-CoV-2 replication or elicit any toxicity"}
    ]}
  ]
}
